Results reported in ChEMBL document CHEMBL3872258, “Challenges in the development of an M4 PAM in vivo tool compound: The discovery of VU0467154 and unexpected DMPK profiles of close analogs” (Bioorg Med Chem Lett, 2017).

How the values were obtained:
Rattus norvegicus = assay: Reversal of amphetamine-induced hyperlocomotion in Sprague-Dawley rat at 10 mg/kg, po administered 30 mins after habituation in the chamber followed by amphetamine injection measured for 60 mins; type: functional
[1] = Unbound fraction in rat plasma; type: ADME, cell-free
[2] = Intrinsic clearance in human; type: ADME
[3] = Unbound fraction in human plasma; type: ADME, cell-free
[4] = biological target: T1, Muscarinic acetylcholine receptor M1 (Homo sapiens, UniProt P11229); assay: Displacement of [3H]-N-Methylscopolamine from human M1 receptor expressed in CHOK1 cells; type: cell-based, CHO-K1
T1 sequence (P11229 whole entry): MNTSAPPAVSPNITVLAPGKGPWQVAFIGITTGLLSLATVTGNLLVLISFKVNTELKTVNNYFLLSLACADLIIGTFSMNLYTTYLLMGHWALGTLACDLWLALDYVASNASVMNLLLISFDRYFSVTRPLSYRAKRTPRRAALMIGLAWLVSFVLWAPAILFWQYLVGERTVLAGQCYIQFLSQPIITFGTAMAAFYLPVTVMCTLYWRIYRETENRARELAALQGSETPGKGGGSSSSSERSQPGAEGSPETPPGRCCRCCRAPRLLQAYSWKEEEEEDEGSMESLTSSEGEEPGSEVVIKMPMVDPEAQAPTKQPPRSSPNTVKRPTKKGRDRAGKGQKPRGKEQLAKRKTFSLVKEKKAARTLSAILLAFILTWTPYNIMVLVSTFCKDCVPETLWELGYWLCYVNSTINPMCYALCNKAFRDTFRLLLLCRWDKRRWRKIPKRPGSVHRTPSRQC

Cytochrome P450 3A4 = Cytochrome P450 3A4 (Homo sapiens, UniProt P08684); assay: Inhibition of CYP3A4 (unknown origin); type: ADME
Chain of Cytochrome P450 3A4 (P08684 whole entry): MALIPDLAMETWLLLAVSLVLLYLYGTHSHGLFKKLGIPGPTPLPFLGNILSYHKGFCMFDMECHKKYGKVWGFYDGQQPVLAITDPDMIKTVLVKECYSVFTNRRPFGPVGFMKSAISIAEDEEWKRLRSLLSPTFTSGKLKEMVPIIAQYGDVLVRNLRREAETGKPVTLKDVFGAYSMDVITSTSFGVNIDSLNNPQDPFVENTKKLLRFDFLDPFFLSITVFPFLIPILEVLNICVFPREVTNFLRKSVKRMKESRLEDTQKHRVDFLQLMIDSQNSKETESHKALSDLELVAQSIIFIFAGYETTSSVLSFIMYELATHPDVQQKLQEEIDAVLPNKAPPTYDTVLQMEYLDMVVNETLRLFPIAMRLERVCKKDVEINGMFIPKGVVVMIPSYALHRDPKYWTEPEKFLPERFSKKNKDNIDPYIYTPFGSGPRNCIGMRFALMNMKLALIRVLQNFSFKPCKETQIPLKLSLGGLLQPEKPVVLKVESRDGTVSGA

[5] = biological target: T2, Muscarinic acetylcholine receptor M5 (Rattus norvegicus, UniProt P08911); assay: Binding affinity to rat M5 receptor by radio-ligand binding assay
T2 sequence (P08911 whole entry): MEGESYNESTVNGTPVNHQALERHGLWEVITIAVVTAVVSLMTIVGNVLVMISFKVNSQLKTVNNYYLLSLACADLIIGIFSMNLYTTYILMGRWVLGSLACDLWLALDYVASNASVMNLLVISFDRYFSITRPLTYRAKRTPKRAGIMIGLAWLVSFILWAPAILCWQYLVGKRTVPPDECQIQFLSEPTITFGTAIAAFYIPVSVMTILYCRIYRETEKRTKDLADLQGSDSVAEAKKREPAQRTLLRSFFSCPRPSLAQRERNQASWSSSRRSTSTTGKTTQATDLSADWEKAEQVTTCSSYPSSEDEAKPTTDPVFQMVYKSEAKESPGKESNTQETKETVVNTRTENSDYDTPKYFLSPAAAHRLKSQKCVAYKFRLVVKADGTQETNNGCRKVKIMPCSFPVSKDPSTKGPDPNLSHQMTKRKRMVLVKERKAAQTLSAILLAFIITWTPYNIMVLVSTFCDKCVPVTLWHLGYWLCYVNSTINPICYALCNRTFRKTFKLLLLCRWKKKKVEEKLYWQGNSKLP

[6] = biological target: T3, Muscarinic acetylcholine receptor M2 (Homo sapiens, UniProt P08172); assay: Displacement of [3H]-N-Methylscopolamine from human M2 receptor expressed in CHOK1 cells; type: cell-based, CHO-K1
T3 sequence (P08172 whole entry): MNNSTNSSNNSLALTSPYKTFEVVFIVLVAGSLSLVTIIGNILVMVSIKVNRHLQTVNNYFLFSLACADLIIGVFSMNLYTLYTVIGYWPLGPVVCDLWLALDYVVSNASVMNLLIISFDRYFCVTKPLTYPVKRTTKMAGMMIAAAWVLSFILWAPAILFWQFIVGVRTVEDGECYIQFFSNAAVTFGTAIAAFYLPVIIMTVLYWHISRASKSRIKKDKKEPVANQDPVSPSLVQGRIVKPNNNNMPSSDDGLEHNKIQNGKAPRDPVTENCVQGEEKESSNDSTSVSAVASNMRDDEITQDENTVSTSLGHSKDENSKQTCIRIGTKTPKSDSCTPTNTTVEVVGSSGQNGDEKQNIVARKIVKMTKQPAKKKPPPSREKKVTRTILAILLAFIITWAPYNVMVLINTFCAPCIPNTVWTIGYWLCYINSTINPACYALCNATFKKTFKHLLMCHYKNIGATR

Cytochrome P450 1A2 = biological target: T4, Cytochrome P450 1A2 (Homo sapiens, UniProt P05177); assay: Inhibition of CYP1A2 (unknown origin); type: ADME
T4 sequence (P05177 whole entry): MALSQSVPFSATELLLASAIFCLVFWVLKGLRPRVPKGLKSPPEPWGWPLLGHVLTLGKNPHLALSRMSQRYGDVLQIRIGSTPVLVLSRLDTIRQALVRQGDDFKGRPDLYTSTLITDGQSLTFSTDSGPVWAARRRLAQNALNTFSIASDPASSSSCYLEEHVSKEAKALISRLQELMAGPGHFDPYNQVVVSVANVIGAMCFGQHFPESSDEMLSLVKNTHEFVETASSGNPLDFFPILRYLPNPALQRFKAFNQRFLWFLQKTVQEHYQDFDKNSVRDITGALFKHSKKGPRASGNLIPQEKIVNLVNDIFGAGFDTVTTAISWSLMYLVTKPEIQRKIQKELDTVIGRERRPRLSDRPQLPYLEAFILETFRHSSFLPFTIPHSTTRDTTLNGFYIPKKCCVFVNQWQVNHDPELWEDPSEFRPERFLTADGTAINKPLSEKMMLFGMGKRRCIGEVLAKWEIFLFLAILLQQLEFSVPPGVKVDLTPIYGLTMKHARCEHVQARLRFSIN

[7] = Volume of distribution at steady state in Sprague-Dawley rat at 1 mg/kg, iv; type: ADME, organism-based; details: in vivo; for Vd: Sprague-Dawley, read-out: Vdss
[8] = biological target: Muscarinic acetylcholine receptor M3 (Rattus norvegicus, UniProt P08483); assay: Binding affinity to rat M3 receptor by radio-ligand binding assay
Chain of Muscarinic acetylcholine receptor M3 (P08483 whole entry): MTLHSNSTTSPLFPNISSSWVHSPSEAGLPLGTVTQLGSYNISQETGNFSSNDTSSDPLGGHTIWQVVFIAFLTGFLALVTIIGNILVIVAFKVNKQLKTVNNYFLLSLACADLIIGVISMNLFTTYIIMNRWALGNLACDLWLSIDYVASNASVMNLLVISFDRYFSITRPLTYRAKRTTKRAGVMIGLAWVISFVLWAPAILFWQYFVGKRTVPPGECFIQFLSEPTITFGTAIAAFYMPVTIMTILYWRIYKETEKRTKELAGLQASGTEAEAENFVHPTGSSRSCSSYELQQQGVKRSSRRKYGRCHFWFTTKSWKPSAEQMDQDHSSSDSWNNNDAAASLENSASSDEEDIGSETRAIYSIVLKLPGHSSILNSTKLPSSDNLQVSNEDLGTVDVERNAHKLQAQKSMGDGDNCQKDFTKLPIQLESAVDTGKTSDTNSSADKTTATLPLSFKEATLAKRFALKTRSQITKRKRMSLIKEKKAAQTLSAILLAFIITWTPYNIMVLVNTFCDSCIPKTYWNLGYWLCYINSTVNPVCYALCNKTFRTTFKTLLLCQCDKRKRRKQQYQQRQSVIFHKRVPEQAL

[9] = biological target: T5, Muscarinic acetylcholine receptor M4 (Rattus norvegicus, UniProt P08485); assay: Positive allosteric modulation of rat M4 receptor expressed in CHO cells co-expressing Gqui5 by calcium mobilization assay; type: functional, cell-based
T5 sequence (P08485 whole entry): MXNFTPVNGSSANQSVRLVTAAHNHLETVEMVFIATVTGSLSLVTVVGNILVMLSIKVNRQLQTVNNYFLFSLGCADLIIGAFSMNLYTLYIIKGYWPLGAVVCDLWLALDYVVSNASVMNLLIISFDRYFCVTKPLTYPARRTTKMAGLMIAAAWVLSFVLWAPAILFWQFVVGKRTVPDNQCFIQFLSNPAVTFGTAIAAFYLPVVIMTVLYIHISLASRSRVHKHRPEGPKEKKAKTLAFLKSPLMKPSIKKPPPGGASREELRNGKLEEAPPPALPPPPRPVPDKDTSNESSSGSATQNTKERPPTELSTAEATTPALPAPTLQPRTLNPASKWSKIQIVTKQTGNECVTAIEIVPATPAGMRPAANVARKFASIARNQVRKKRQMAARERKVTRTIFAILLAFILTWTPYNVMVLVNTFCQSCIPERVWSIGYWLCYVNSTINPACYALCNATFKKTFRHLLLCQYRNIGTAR

[10] = biological target: Sodium-dependent serotonin transporter (Homo sapiens, UniProt P31645); assay: Displacement of [3H]-Paroxetine from recombinant human SERT expressed in HEK293 cells; type: cell-based
Chain of Sodium-dependent serotonin transporter (P31645 whole entry): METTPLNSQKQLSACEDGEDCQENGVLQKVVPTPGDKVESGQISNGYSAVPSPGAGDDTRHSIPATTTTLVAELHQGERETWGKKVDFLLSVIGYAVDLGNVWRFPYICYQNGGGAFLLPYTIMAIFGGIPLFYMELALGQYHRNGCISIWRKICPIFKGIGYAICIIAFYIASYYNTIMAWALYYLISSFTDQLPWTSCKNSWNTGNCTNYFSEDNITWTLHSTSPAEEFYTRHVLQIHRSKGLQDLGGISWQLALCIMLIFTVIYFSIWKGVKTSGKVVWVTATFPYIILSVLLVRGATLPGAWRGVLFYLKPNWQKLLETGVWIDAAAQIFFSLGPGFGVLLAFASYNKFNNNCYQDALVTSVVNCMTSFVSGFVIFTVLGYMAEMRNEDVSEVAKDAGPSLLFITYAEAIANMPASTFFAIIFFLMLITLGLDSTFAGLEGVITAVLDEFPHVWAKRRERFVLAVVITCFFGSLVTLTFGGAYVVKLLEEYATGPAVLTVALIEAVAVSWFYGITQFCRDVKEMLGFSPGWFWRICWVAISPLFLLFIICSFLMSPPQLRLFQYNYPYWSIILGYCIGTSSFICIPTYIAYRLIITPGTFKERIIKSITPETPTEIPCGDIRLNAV

Row | Structure (SMILES) | Activity (Rattus norvegicus) | fraction unbound [1] | CLint scaled [2] | Fu [3] | EC50 [4] | IC50 (Cytochrome P450 3A4) | EC50 [5] | EC50 [6] | IC50 (Cytochrome P450 1A2) | Vdss [7] | EC50 [8] | EC50 [9] | Vd [7] | IC50 [10] | Fu [1]
1 | Cc1nnc2sc(C(=O)NCc3ccc(S(=O)(=O)C(F)(F)F)cc3)c(N)c2c1C | 55.3% | 0.031 | 19.8 mL/min/kg | 0.019 | > 30 µM | > 30 µM | > 30 µM | > 30 µM | > 30 µM | 3.1 L/kg | > 30 µM |  |  |  | 
2 | Cc1nnc2sc(C(=O)NCc3ccc(S(F)(F)(F)(F)F)cc3)c(N)c2c1C | 66.3% |  | 52.8 mL/min/kg | 0.01 | > 30 µM | > 30 µM | > 30 µM | > 30 µM | > 30 µM |  | > 30 µM | 0.0302 µM | 3.1 L/kg | 0.52 µM | 
3 | Cc1nnc2sc(C(=O)NCc3ccc(S(=O)(=O)C(F)F)cc3)c(N)c2c1C | 49.3% |  | 15.6 mL/min/kg | 0.053 | > 30 µM | > 30 µM | > 30 µM | > 30 µM | > 30 µM |  | > 30 µM | 0.0178 µM | 2.9 L/kg | 0.6 µM | 0.066
